Results published in patent publication US20260027116A1, “Methods of Treating Chronic Graft-Versus-Host Disease Following Allogeneic Hematopoietic Stem Cell Transplantation” (Kadmon Corporation, LLC, priority 2022, published 2026).

Columns and labels:
[1] = target: CYP3A4 (Homo sapiens, UniProt P08684); experiment: metabolism in vitro; assay type: in vitro ADME
[2] = target: T1, BCRP (Homo sapiens, UniProt Q9UNQ0); experiment: transporter inhibition in vitro; assay type: in vitro ADME; conditions: at clinically relevant concentrations
T1 sequence (Q9UNQ0 1-655): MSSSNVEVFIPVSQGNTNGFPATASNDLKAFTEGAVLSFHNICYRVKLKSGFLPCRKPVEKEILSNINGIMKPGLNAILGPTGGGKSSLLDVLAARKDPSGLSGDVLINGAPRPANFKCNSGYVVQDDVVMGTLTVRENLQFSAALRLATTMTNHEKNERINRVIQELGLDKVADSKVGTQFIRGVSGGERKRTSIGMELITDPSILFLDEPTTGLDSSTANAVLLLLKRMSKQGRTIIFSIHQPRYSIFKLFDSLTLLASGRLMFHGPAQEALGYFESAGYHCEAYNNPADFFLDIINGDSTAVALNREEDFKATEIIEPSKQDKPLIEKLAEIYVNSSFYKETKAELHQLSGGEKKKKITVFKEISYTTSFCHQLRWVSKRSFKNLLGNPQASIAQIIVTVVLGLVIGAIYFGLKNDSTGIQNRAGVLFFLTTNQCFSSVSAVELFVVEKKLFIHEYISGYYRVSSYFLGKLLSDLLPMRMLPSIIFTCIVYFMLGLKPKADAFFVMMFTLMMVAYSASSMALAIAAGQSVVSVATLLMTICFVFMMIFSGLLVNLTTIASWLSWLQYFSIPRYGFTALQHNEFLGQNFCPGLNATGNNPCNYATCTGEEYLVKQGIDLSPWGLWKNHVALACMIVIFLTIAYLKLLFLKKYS

[3] = test system: lung function; experiment: Example 1: percent predicted HGB corrected DLco change from baseline; assay type: in vivo, human; conditions: mean (SD)
Excerpt: Change From Baseline in Percent Predicted Hemoglobin (HGB) Corrected Diffusing Capacity of Lung for Carbon Monoxide (DLco) at Each Specified Time Points. DLco is a measurement of the ability of the lungs to transfer gases from the air to the blood. Change from baseline in diffusing capacity of the lung for carbon monoxide (percent predicted hemoglobin level corrected) was reported for this measure. Baseline value was defined as valid and last non-missing value obtained within 28 days prior to participant receiving first study medication. EOT visit was performed within 3 days after the participant's last dose of study drug. […] Analysis was performed on mITT population. Here, ‘number analyzed’=participants with available data for each specified category. Here, ‘O’ in the number analyzed field signifies that none of the participants were available for the analysis at the specified time points.

Chain of CYP3A4 (P08684 whole entry): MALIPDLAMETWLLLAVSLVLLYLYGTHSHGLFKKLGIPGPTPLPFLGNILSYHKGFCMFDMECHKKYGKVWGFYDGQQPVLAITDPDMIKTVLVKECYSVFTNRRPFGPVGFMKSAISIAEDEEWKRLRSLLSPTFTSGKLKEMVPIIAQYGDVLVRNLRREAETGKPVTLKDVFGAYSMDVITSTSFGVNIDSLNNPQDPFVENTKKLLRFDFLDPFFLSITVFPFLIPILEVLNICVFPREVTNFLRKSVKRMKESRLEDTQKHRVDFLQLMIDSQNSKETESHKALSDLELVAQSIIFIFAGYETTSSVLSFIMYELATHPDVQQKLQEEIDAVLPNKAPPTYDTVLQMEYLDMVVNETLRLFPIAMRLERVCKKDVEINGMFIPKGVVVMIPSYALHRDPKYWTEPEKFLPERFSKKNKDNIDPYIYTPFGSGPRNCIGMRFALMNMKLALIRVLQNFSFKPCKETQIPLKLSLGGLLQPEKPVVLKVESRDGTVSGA

SMILES: CC(C)NC(=O)COc1cccc(-c2nc(Nc3ccc4[nH]ncc4c3)c3ccccc3n2)c1 [Belumosudil, 2-{3-[4-(1H-indazol-5-ylamino)-2-quinazolinyl]phenoxy}-N-(propan-2-yl) acetamide]
- metabolism by CYP3A4 [1]: primarily metabolized
- inhibition of BCRP [2]: inhibits
- Change From Baseline in Percent Predicted Hemoglobin (HGB) Corrected Diffusing Capacity of Lung for Carbon Monoxide (DLco) ([3]; Cohort 1: 200 mg QD, Cycle 3, Day 1): 4.545 (22.991) Percent Predicted HGB Corrected DLco
- Change From Baseline in Percent Predicted Hemoglobin (HGB) Corrected Diffusing Capacity of Lung for Carbon Monoxide (DLco) ([3]; Cohort 1: 200 mg QD, Cycle 5, Day 1): 4.635 (23.989) Percent Predicted HGB Corrected DLco
- Change From Baseline in Percent Predicted Hemoglobin (HGB) Corrected Diffusing Capacity of Lung for Carbon Monoxide (DLco) ([3]; Cohort 1: 200 mg QD, Cycle 7, Day 1): 1.521 (19.836) Percent Predicted HGB Corrected DLco
- Change From Baseline in Percent Predicted Hemoglobin (HGB) Corrected Diffusing Capacity of Lung for Carbon Monoxide (DLco) ([3]; Cohort 1: 200 mg QD, Cycle 9, Day 1): −4.514 (7.401) Percent Predicted HGB Corrected DLco
- Change From Baseline in Percent Predicted Hemoglobin (HGB) Corrected Diffusing Capacity of Lung for Carbon Monoxide (DLco) ([3]; Cohort 1: 200 mg QD, Cycle 11, Day 1): −0.625 (7.262) Percent Predicted HGB Corrected DLco
- Change From Baseline in Percent Predicted Hemoglobin (HGB) Corrected Diffusing Capacity of Lung for Carbon Monoxide (DLco) ([3]; Cohort 1: 200 mg QD, Cycle 12, Day 1): 0.531 (—) Percent Predicted HGB Corrected DLco
- Change From Baseline in Percent Predicted Hemoglobin (HGB) Corrected Diffusing Capacity of Lung for Carbon Monoxide (DLco) ([3]; Cohort 1: 200 mg QD, Cycle 13, Day 1): −5.548 (12.175) Percent Predicted HGB Corrected DLco
- Change From Baseline in Percent Predicted Hemoglobin (HGB) Corrected Diffusing Capacity of Lung for Carbon Monoxide (DLco) ([3]; Cohort 1: 200 mg QD, Cycle 14, Day 1): 12.916 (—) Percent Predicted HGB Corrected DLco
- Change From Baseline in Percent Predicted Hemoglobin (HGB) Corrected Diffusing Capacity of Lung for Carbon Monoxide (DLco) ([3]; Cohort 1: 200 mg QD, Cycle 15, Day 1): 0.228 (15.731) Percent Predicted HGB Corrected DLco
- Change From Baseline in Percent Predicted Hemoglobin (HGB) Corrected Diffusing Capacity of Lung for Carbon Monoxide (DLco) ([3]; Cohort 1: 200 mg QD, Cycle 16, Day 1): 48.465 (—) Percent Predicted HGB Corrected DLco
- Change From Baseline in Percent Predicted Hemoglobin (HGB) Corrected Diffusing Capacity of Lung for Carbon Monoxide (DLco) ([3]; Cohort 1: 200 mg QD, Cycle 17, Day 1): −1.018 (9.226) Percent Predicted HGB Corrected DLco
- Change From Baseline in Percent Predicted Hemoglobin (HGB) Corrected Diffusing Capacity of Lung for Carbon Monoxide (DLco) ([3]; Cohort 1: 200 mg QD, Cycle 19, Day 1): −2.293 (5.763) Percent Predicted HGB Corrected DLco
- Change From Baseline in Percent Predicted Hemoglobin (HGB) Corrected Diffusing Capacity of Lung for Carbon Monoxide (DLco) ([3]; Cohort 1: 200 mg QD, Cycle 21, Day 1): −2.778 (8.187) Percent Predicted HGB Corrected DLco
- Change From Baseline in Percent Predicted Hemoglobin (HGB) Corrected Diffusing Capacity of Lung for Carbon Monoxide (DLco) ([3]; Cohort 1: 200 mg QD, Cycle 23, Day 1): 0.354 (1.844) Percent Predicted HGB Corrected DLco
- Change From Baseline in Percent Predicted Hemoglobin (HGB) Corrected Diffusing Capacity of Lung for Carbon Monoxide (DLco) ([3]; Cohort 1: 200 mg QD, Cycle 24, Day 1): 6.945 (—) Percent Predicted HGB Corrected DLco
- Change From Baseline in Percent Predicted Hemoglobin (HGB) Corrected Diffusing Capacity of Lung for Carbon Monoxide (DLco) ([3]; Cohort 1: 200 mg QD, Cycle 25, Day 1): −4.461 (19.865) Percent Predicted HGB Corrected DLco
- Change From Baseline in Percent Predicted Hemoglobin (HGB) Corrected Diffusing Capacity of Lung for Carbon Monoxide (DLco) ([3]; Cohort 1: 200 mg QD, Cycle 26, Day 1): 4.715 (—) Percent Predicted HGB Corrected DLco
- Change From Baseline in Percent Predicted Hemoglobin (HGB) Corrected Diffusing Capacity of Lung for Carbon Monoxide (DLco) ([3]; Cohort 1: 200 mg QD, Cycle 27, Day 1): −8.047 (24.788) Percent Predicted HGB Corrected DLco
- Change From Baseline in Percent Predicted Hemoglobin (HGB) Corrected Diffusing Capacity of Lung for Carbon Monoxide (DLco) ([3]; Cohort 1: 200 mg QD, Cycle 29, Day 1): −6.701 (1.671) Percent Predicted HGB Corrected DLco
- Change From Baseline in Percent Predicted Hemoglobin (HGB) Corrected Diffusing Capacity of Lung for Carbon Monoxide (DLco) ([3]; Cohort 1: 200 mg QD, Cycle 31, Day 1): 2.343 (20.988) Percent Predicted HGB Corrected DLco
- Change From Baseline in Percent Predicted Hemoglobin (HGB) Corrected Diffusing Capacity of Lung for Carbon Monoxide (DLco) ([3]; Cohort 1: 200 mg QD, Cycle 32, Day 1): 5.586 (—) Percent Predicted HGB Corrected DLco
- Change From Baseline in Percent Predicted Hemoglobin (HGB) Corrected Diffusing Capacity of Lung for Carbon Monoxide (DLco) ([3]; Cohort 1: 200 mg QD, Cycle 33, Day 1): 9.901 (9.954) Percent Predicted HGB Corrected DLco
- Change From Baseline in Percent Predicted Hemoglobin (HGB) Corrected Diffusing Capacity of Lung for Carbon Monoxide (DLco) ([3]; Cohort 1: 200 mg QD, Cycle 34, Day 1): 4.863 (—) Percent Predicted HGB Corrected DLco
- Change From Baseline in Percent Predicted Hemoglobin (HGB) Corrected Diffusing Capacity of Lung for Carbon Monoxide (DLco) ([3]; Cohort 1: 200 mg QD, Cycle 35, Day 1): 13.867 (1.309) Percent Predicted HGB Corrected DLco
- Change From Baseline in Percent Predicted Hemoglobin (HGB) Corrected Diffusing Capacity of Lung for Carbon Monoxide (DLco) ([3]; Cohort 1: 200 mg QD, Cycle 36, Day 1): 4.166 (—) Percent Predicted HGB Corrected DLco
- Change From Baseline in Percent Predicted Hemoglobin (HGB) Corrected Diffusing Capacity of Lung for Carbon Monoxide (DLco) ([3]; Cohort 1: 200 mg QD, Cycle 37, Day 1): 9.306 (—) Percent Predicted HGB Corrected DLco
- Change From Baseline in Percent Predicted Hemoglobin (HGB) Corrected Diffusing Capacity of Lung for Carbon Monoxide (DLco) ([3]; Cohort 1: 200 mg QD, Cycle 39, Day 1): 14.754 (0.649) Percent Predicted HGB Corrected DLco
- Change From Baseline in Percent Predicted Hemoglobin (HGB) Corrected Diffusing Capacity of Lung for Carbon Monoxide (DLco) ([3]; Cohort 1: 200 mg QD, Cycle 40, Day 1): 5.586 (—) Percent Predicted HGB Corrected DLco
- Change From Baseline in Percent Predicted Hemoglobin (HGB) Corrected Diffusing Capacity of Lung for Carbon Monoxide (DLco) ([3]; Cohort 1: 200 mg QD, Cycle 41, Day 1): 22.884 (—) Percent Predicted HGB Corrected DLco
- Change From Baseline in Percent Predicted Hemoglobin (HGB) Corrected Diffusing Capacity of Lung for Carbon Monoxide (DLco) ([3]; Cohort 1: 200 mg QD, Cycle 43, Day 1): 15.213 (—) Percent Predicted HGB Corrected DLco
- Change From Baseline in Percent Predicted Hemoglobin (HGB) Corrected Diffusing Capacity of Lung for Carbon Monoxide (DLco) ([3]; Cohort 1: 200 mg QD, Cycle 49, Day 1): −3.599 (—) Percent Predicted HGB Corrected DLco
- Change From Baseline in Percent Predicted Hemoglobin (HGB) Corrected Diffusing Capacity of Lung for Carbon Monoxide (DLco) ([3]; Cohort 1: 200 mg QD, Cycle 51, Day 1): 11.734 (—) Percent Predicted HGB Corrected DLco
- Change From Baseline in Percent Predicted Hemoglobin (HGB) Corrected Diffusing Capacity of Lung for Carbon Monoxide (DLco) ([3]; Cohort 1: 200 mg QD, Cycle 53, Day 1): 10.292 (—) Percent Predicted HGB Corrected DLco
- Change From Baseline in Percent Predicted Hemoglobin (HGB) Corrected Diffusing Capacity of Lung for Carbon Monoxide (DLco) ([3]; Cohort 1: 200 mg QD, Cycle 55, Day 1): 16.550 (—) Percent Predicted HGB Corrected DLco
- Change From Baseline in Percent Predicted Hemoglobin (HGB) Corrected Diffusing Capacity of Lung for Carbon Monoxide (DLco) ([3]; Cohort 1: 200 mg QD, Cycle 61, Day 1): 17.682 (—) Percent Predicted HGB Corrected DLco
- Change From Baseline in Percent Predicted Hemoglobin (HGB) Corrected Diffusing Capacity of Lung for Carbon Monoxide (DLco) ([3]; Cohort 1: 200 mg QD, Cycle 62, Day 1): 4.170 (—) Percent Predicted HGB Corrected DLco
- Change From Baseline in Percent Predicted Hemoglobin (HGB) Corrected Diffusing Capacity of Lung for Carbon Monoxide (DLco) ([3]; Cohort 1: 200 mg QD, Cycle 63, Day 1): 26.215 (—) Percent Predicted HGB Corrected DLco
- Change From Baseline in Percent Predicted Hemoglobin (HGB) Corrected Diffusing Capacity of Lung for Carbon Monoxide (DLco) ([3]; Cohort 1: 200 mg QD, Cycle 67, Day 1): 41.384 (—) Percent Predicted HGB Corrected DLco
- Change From Baseline in Percent Predicted Hemoglobin (HGB) Corrected Diffusing Capacity of Lung for Carbon Monoxide (DLco) ([3]; Cohort 1: 200 mg QD, EOT): −1.962 (11.426) Percent Predicted HGB Corrected DLco
- Change From Baseline in Percent Predicted Hemoglobin (HGB) Corrected Diffusing Capacity of Lung for Carbon Monoxide (DLco) ([3]; Cohort 2: 200 mg BID, Cycle 3, Day 1): −0.638 (7.059) Percent Predicted HGB Corrected DLco
- Change From Baseline in Percent Predicted Hemoglobin (HGB) Corrected Diffusing Capacity of Lung for Carbon Monoxide (DLco) ([3]; Cohort 2: 200 mg BID, Cycle 5, Day 1): −4.462 (23.621) Percent Predicted HGB Corrected DLco
- Change From Baseline in Percent Predicted Hemoglobin (HGB) Corrected Diffusing Capacity of Lung for Carbon Monoxide (DLco) ([3]; Cohort 2: 200 mg BID, Cycle 7, Day 1): 6.184 (9.436) Percent Predicted HGB Corrected DLco
- Change From Baseline in Percent Predicted Hemoglobin (HGB) Corrected Diffusing Capacity of Lung for Carbon Monoxide (DLco) ([3]; Cohort 2: 200 mg BID, Cycle 8, Day 1): 3.554 (—) Percent Predicted HGB Corrected DLco
- Change From Baseline in Percent Predicted Hemoglobin (HGB) Corrected Diffusing Capacity of Lung for Carbon Monoxide (DLco) ([3]; Cohort 2: 200 mg BID, Cycle 9, Day 1): 2.570 (8.902) Percent Predicted HGB Corrected DLco
- Change From Baseline in Percent Predicted Hemoglobin (HGB) Corrected Diffusing Capacity of Lung for Carbon Monoxide (DLco) ([3]; Cohort 2: 200 mg BID, Cycle 10, Day 1): 4.343 (3.144) Percent Predicted HGB Corrected DLco
- Change From Baseline in Percent Predicted Hemoglobin (HGB) Corrected Diffusing Capacity of Lung for Carbon Monoxide (DLco) ([3]; Cohort 2: 200 mg BID, Cycle 11, Day 1): 6.582 (10.695) Percent Predicted HGB Corrected DLco
- Change From Baseline in Percent Predicted Hemoglobin (HGB) Corrected Diffusing Capacity of Lung for Carbon Monoxide (DLco) ([3]; Cohort 2: 200 mg BID, Cycle 12, Day 1): 4.076 (—) Percent Predicted HGB Corrected DLco
- Change From Baseline in Percent Predicted Hemoglobin (HGB) Corrected Diffusing Capacity of Lung for Carbon Monoxide (DLco) ([3]; Cohort 2: 200 mg BID, Cycle 13, Day 1): 1.882 (7.522) Percent Predicted HGB Corrected DLco
- Change From Baseline in Percent Predicted Hemoglobin (HGB) Corrected Diffusing Capacity of Lung for Carbon Monoxide (DLco) ([3]; Cohort 2: 200 mg BID, Cycle 14, Day 1): 0.358 (—) Percent Predicted HGB Corrected DLco
